Assay results published in PubChem BioAssay AID1963845 (Molecular Pharmacology Branch, DTP, NCI, 2024).

System: 429239-143-T-J1-PDC complex spheroid viability
Assay: Anticancer human tumor 429239-143-T-J1-PDC patient-derived small cell lung carcinoma cell line growth inhibition [POLQ]
Conditions: for IC50: curve of first compound; for viability, T/C: stronger effect = lower value
Method in brief: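 Complex spheroid viability model combining PDC tumour cells with endothelial (HUVEC) and MSC stromal cells. Novobiocin, ART-558 or RP6685 were tested singly and in combination with standard and investigational anticancer drugs. Each was titrated in half-log steps from near clinical Cmax, or from 10 microM where Cmax was unknown.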

[1] = second compound 0.0316 µM, first compound 0.0316 µM
[2] = second compound 0.0316 µM, first compound 0.1 µM
[3] = second compound 0.0316 µM, first compound 0.316 µM
[4] = second compound 0.0316 µM, first compound 1 µM
[5] = second compound 0.0316 µM, first compound 3.16 µM
[6] = second compound 0.0316 µM, first compound 10 µM
[7] = second compound 0.1 µM, first compound 0.0316 µM
[8] = second compound 0.1 µM, first compound 0.1 µM
[9] = second compound 0.1 µM, first compound 0.316 µM
[10] = second compound 0.1 µM, first compound 1 µM
[11] = second compound 0.1 µM, first compound 3.16 µM
[12] = second compound 0.1 µM, first compound 10 µM
[13] = second compound 0.316 µM, first compound 0.0316 µM
[14] = second compound 0.316 µM, first compound 0.1 µM
[15] = second compound 0.316 µM, first compound 0.316 µM
[16] = second compound 0.316 µM, first compound 1 µM
[17] = second compound 0.316 µM, first compound 3.16 µM
[18] = second compound 0.316 µM, first compound 10 µM
[19] = second compound 1 µM, first compound 0.0316 µM
[20] = second compound 1 µM, first compound 0.1 µM
[21] = second compound 1 µM, first compound 0.316 µM
[22] = second compound 1 µM, first compound 1 µM
[23] = second compound 1 µM, first compound 3.16 µM
[24] = second compound 1 µM, first compound 10 µM
[25] = second compound 3.16 µM, first compound 0.0316 µM
[26] = second compound 3.16 µM, first compound 0.1 µM
[27] = second compound 3.16 µM, first compound 0.316 µM
[28] = second compound 3.16 µM, first compound 1 µM
[29] = second compound 3.16 µM, first compound 3.16 µM
[30] = second compound 3.16 µM, first compound 10 µM
[31] = second compound 10 µM, first compound 0.0316 µM
[32] = second compound 10 µM, first compound 0.1 µM
[33] = second compound 10 µM, first compound 0.316 µM
[34] = second compound 10 µM, first compound 1 µM
[35] = second compound 10 µM, first compound 3.16 µM
[36] = second compound 10 µM, first compound 10 µM
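Also: luminescence signal used as surrogate measure of viable cells; spheroids exposed to compounds for seven days before readout.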
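For viability, T/C in this document: 100% = DMSO vehicle control viability as luminescence relative to vehicle.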

Structure (SMILES): COc1cccc2c1C(=O)c1c(O)c3c(c(O)c1C2=O)CC(O)(C(=O)CO)CC3OC1CC(N)C(O)C(C)O1 (stereo not drawn) + Cc1cccc(N(C)C(=O)C2C(O)CCN2c2nc(C)cc(C(F)(F)F)c2C#N)c1
- IC50 (second compound 0.0316 µM): 56.5 nM
- IC50 (second compound 0.1 µM): 57.9 nM
- IC50 (second compound 0.316 µM): 47.8 nM
- IC50 (second compound 1 µM): 43.8 nM
- IC50 (second compound 3.16 µM): 46.9 nM
- IC50 (second compound 10 µM): 45.2 nM
- viability, T/C [1]: 83.3%
- viability, T/C [2]: 15.2%
- viability, T/C [3]: 12.4%
- viability, T/C [4]: 0.22%
- viability, T/C [5]: 0.12%
- viability, T/C [6]: 0.13%
- viability, T/C [7]: 84.9%
- viability, T/C [8]: 15.6%
- viability, T/C [9]: 14.7%
- viability, T/C [10]: 0.15%
- viability, T/C [11]: 0.11%
- viability, T/C [12]: 0.09%
- viability, T/C [13]: 69.1%
- viability, T/C [14]: 14.3%
- viability, T/C [15]: 11.2%
- viability, T/C [16]: 0.17%
- viability, T/C [17]: 0.16%
- viability, T/C [18]: 0.11%
- viability, T/C [19]: 62.7%
- viability, T/C [20]: 16%
- viability, T/C [21]: 14.7%
- viability, T/C [22]: 0.15%
- viability, T/C [23]: 0.13%
- viability, T/C [24]: 0.09%
- viability, T/C [25]: 68.1%
- viability, T/C [26]: 13.6%
- viability, T/C [27]: 12.1%
- viability, T/C [28]: 0.14%
- viability, T/C [29]: 0.25%
- viability, T/C [30]: 0.15%
- viability, T/C [31]: 63.8%
- viability, T/C [32]: 17.8%
- viability, T/C [33]: 14.5%
- viability, T/C [34]: 0.17%
- viability, T/C [35]: 0.25%
- viability, T/C [36]: 0.2%

Structure (SMILES): Nc1ccn(C2OC(CO)C(O)C2(F)F)c(=O)n1 (stereo not drawn) + Cc1cccc(N(C)C(=O)C2C(O)CCN2c2nc(C)cc(C(F)(F)F)c2C#N)c1
- IC50 (second compound 0.0316 µM): < 31.6 nM
- IC50 (second compound 0.1 µM): < 31.6 nM
- IC50 (second compound 0.316 µM): < 31.6 nM
- IC50 (second compound 1 µM): < 31.6 nM
- IC50 (second compound 3.16 µM): < 31.6 nM
- IC50 (second compound 10 µM): < 31.6 nM
- viability, T/C [1]: 19.2%
- viability, T/C [2]: 20.4%
- viability, T/C [3]: 17.1%
- viability, T/C [4]: 18%
- viability, T/C [5]: 18.3%
- viability, T/C [6]: 17.3%
- viability, T/C [7]: 20.3%
- viability, T/C [8]: 20%
- viability, T/C [9]: 15.1%
- viability, T/C [10]: 20.4%
- viability, T/C [11]: 18%
- viability, T/C [12]: 16.5%
- viability, T/C [13]: 18.5%
- viability, T/C [14]: 16.1%
- viability, T/C [15]: 18.6%
- viability, T/C [16]: 20.8%
- viability, T/C [17]: 19.3%
- viability, T/C [18]: 17.1%
- viability, T/C [19]: 21.8%
- viability, T/C [20]: 16.5%
- viability, T/C [21]: 18.2%
- viability, T/C [22]: 16.6%
- viability, T/C [23]: 17.2%
- viability, T/C [24]: 17.5%
- viability, T/C [25]: 25.2%
- viability, T/C [26]: 17.2%
- viability, T/C [27]: 21.9%
- viability, T/C [28]: 18.5%
- viability, T/C [29]: 15.5%
- viability, T/C [30]: 18.3%
- viability, T/C [31]: 24.9%
- viability, T/C [32]: 15.6%
- viability, T/C [33]: 20.8%
- viability, T/C [34]: 17.9%
- viability, T/C [35]: 20.2%
- viability, T/C [36]: 19.4%

Structure (SMILES): O=C(c1cc(Cc2n[nH]c(=O)c3ccccc23)ccc1F)N1CCN(C(=O)C2CC2)CC1 + Cc1cccc(N(C)C(=O)C2C(O)CCN2c2nc(C)cc(C(F)(F)F)c2C#N)c1
- IC50 (second compound 0.0316 µM): 1570 nM
- IC50 (second compound 0.1 µM): 1460 nM
- IC50 (second compound 0.316 µM): 1650 nM
- IC50 (second compound 1 µM): 1750 nM
- IC50 (second compound 3.16 µM): 1880 nM
- IC50 (second compound 10 µM): 1500 nM
- viability, T/C [1]: 104%
- viability, T/C [2]: 84.5%
- viability, T/C [3]: 82.9%
- viability, T/C [4]: 65.4%
- viability, T/C [5]: 28.9%
- viability, T/C [6]: 19.9%
- viability, T/C [7]: 85.1%
- viability, T/C [8]: 81.3%
- viability, T/C [9]: 78%
- viability, T/C [10]: 55.8%
- viability, T/C [11]: 35.3%
- viability, T/C [12]: 17.9%
- viability, T/C [13]: 94.2%
- viability, T/C [14]: 82.5%
- viability, T/C [15]: 81.9%
- viability, T/C [16]: 61.3%
- viability, T/C [17]: 35%
- viability, T/C [18]: 18.7%
- viability, T/C [19]: 83.5%
- viability, T/C [20]: 78.9%
- viability, T/C [21]: 80.6%
- viability, T/C [22]: 63.4%
- viability, T/C [23]: 35.5%
- viability, T/C [24]: 18.6%
- viability, T/C [25]: 92.6%
- viability, T/C [26]: 78.7%
- viability, T/C [27]: 81.5%
- viability, T/C [28]: 66.3%
- viability, T/C [29]: 36.5%
- viability, T/C [30]: 21%
- viability, T/C [31]: 89.5%
- viability, T/C [32]: 91.9%
- viability, T/C [33]: 70.9%
- viability, T/C [34]: 58.2%
- viability, T/C [35]: 37%
- viability, T/C [36]: 18.7%

Structure (SMILES): O=c1[nH]cc(F)c(=O)[nH]1 + Cc1cccc(N(C)C(=O)C2C(O)CCN2c2nc(C)cc(C(F)(F)F)c2C#N)c1
- IC50 (second compound 0.0316 µM): > 10000 nM
- IC50 (second compound 0.1 µM): 6820 nM
- IC50 (second compound 0.316 µM): > 10000 nM
- IC50 (second compound 1 µM): 9330 nM
- IC50 (second compound 3.16 µM): > 10000 nM
- IC50 (second compound 10 µM): 9510 nM
- viability, T/C [1]: 108%
- viability, T/C [2]: 109%
- viability, T/C [3]: 101%
- viability, T/C [4]: 105%
- viability, T/C [5]: 65.9%
- viability, T/C [6]: 54.5%
- viability, T/C [7]: 106%
- viability, T/C [8]: 92.3%
- viability, T/C [9]: 104%
- viability, T/C [10]: 91.1%
- viability, T/C [11]: 61.4%
- viability, T/C [12]: 44.4%
- viability, T/C [13]: 96.6%
- viability, T/C [14]: 112%
- viability, T/C [15]: 101%
- viability, T/C [16]: 104%
- viability, T/C [17]: 56.5%
- viability, T/C [18]: 50.8%
- viability, T/C [19]: 105%
- viability, T/C [20]: 110%
- viability, T/C [21]: 120%
- viability, T/C [22]: 87.8%
- viability, T/C [23]: 72.4%
- viability, T/C [24]: 47.7%
- viability, T/C [25]: 95.9%
- viability, T/C [26]: 97.2%
- viability, T/C [27]: 114%
- viability, T/C [28]: 78.2%
- viability, T/C [29]: 56.5%
- viability, T/C [30]: 47.6%
- viability, T/C [31]: 98.7%
- viability, T/C [32]: 93.9%
- viability, T/C [33]: 97.5%
- viability, T/C [34]: 83.9%
- viability, T/C [35]: 65%
- viability, T/C [36]: 49.2%
